Results as given in the supplement of paper PMC10307832.

Key:
Test in all cases: relative viability (nuclei count vs DMSO), 5 days (fraction); higher = more cells survive
Alisertib + Trametinib = compound: COc1cc(Nc2ncc3c(n2)-c2ccc(Cl)cc2C(c2c(F)cccc2OC)=NC3)ccc1C(=O)O [Alisertib] + CC(=O)Nc1cccc(-n2c(=O)n(C3CC3)c(=O)c3c(Nc4ccc(I)cc4F)n(C)c(=O)c(C)c32)c1 [Trametinib] (partner 0.02 µM)
In short: (§1)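 One day after seeding in 1536-well plates, lung cancer cell lines were dosed by pin tool. Dosing was either single-drug or a fixed anchor-drug dose plus five library-drug doses (not always all listed) in √10 steps. After 5 days, nuclei were stained in one fix-and-stain step and counted on 4× images, and relative viability is the nuclei count of treated wells over that of vehicle wells, given as the median of duplicate plates.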

Alisertib + Navitoclax = compound: COc1cc(Nc2ncc3c(n2)-c2ccc(Cl)cc2C(c2c(F)cccc2OC)=NC3)ccc1C(=O)O [Alisertib] + CC1(C)CCC(c2ccc(Cl)cc2)=C(CN2CCN(c3ccc(C(=O)NS(=O)(=O)c4ccc(N[C@H](CCN5CCOCC5)CSc5ccccc5)c(S(=O)(=O)C(F)(F)F)c4)cc3)CC2)C1 [Navitoclax] (partner 0.5 µM)
In short: as §1

Alisertib + Phenformin = compound: COc1cc(Nc2ncc3c(n2)-c2ccc(Cl)cc2C(c2c(F)cccc2OC)=NC3)ccc1C(=O)O [Alisertib] + N=C(N)NC(=N)NCCc1ccccc1 [Phenformin] (partner 250 µM)
In short: as §1

Alisertib + Pemetrexed = compound: COc1cc(Nc2ncc3c(n2)-c2ccc(Cl)cc2C(c2c(F)cccc2OC)=NC3)ccc1C(=O)O [Alisertib] + Nc1nc2[nH]cc(CCc3ccc(C(=O)N[C@@H](CCC(=O)O)C(=O)O)cc3)c2c(=O)[nH]1 [Pemetrexed] (partner 0.2 µM)
In short: as §1

Row | Cell Line | relative viability (Alisertib + Trametinib; first compound 0.005 µM) | relative viability (Alisertib + Trametinib; first compound 0.01581 µM) | relative viability (Alisertib + Trametinib; first compound 0.05 µM) | relative viability (Alisertib + Trametinib; first compound 0.1581 µM) | relative viability (Alisertib + Trametinib; first compound 0.5 µM) | relative viability (Alisertib + Navitoclax; first compound 0.005 µM) | relative viability (Alisertib + Navitoclax; first compound 0.01581 µM) | relative viability (Alisertib + Navitoclax; first compound 0.05 µM) | relative viability (Alisertib + Navitoclax; first compound 0.1581 µM) | relative viability (Alisertib + Navitoclax; first compound 0.5 µM) | relative viability (Alisertib + Phenformin; first compound 0.005 µM) | relative viability (Alisertib + Phenformin; first compound 0.01581 µM) | relative viability (Alisertib + Phenformin; first compound 0.05 µM) | relative viability (Alisertib + Phenformin; first compound 0.1581 µM) | relative viability (Alisertib + Phenformin; first compound 0.5 µM) | relative viability (Alisertib + Pemetrexed; first compound 0.005 µM) | relative viability (Alisertib + Pemetrexed; first compound 0.01581 µM) | relative viability (Alisertib + Pemetrexed; first compound 0.05 µM) | relative viability (Alisertib + Pemetrexed; first compound 0.1581 µM) | relative viability (Alisertib + Pemetrexed; first compound 0.5 µM)
1 | LC-2-ad | 0.826 | 0.698 | 0.517 | 0.353 | 0.191 | 0.328 | 0.159 | 0.0861 | 0.114 | 0.0846 | 0.474 | 0.426 | 0.401 | 0.295 | 0.304 | 0.263 | 0.228 | 0.215 | 0.177 | 0.175
2 | SK-MES-1 | 0.525 | 0.556 | 0.603 | 0.468 | 0.183 | 1.09 | 0.892 | 0.315 | 0.139 | 0.0931 | 0.643 | 0.684 | 0.502 | 0.38 | 0.146 | 0.904 | 0.787 | 0.661 | 0.442 | 0.191
3 | A-427 | 0.596 | 0.57 | 0.244 | 0.241 | 0.262 | 0.897 | 0.907 | 0.26 | 0.167 | 0.158 | 0.298 | 0.187 | 0.117 | 0.132 | 0.121 | 0.818 | 0.5 | 0.266 | 0.265 | 0.251
4 | NCI-H322M | 0.456 | 0.495 | 0.403 | 0.472 | 0.381 | 1.16 | 1.3 | 1.13 | 0.576 | 0.35 | 0.683 | 0.793 | 0.572 | 0.412 | 0.409 | 0.588 | 0.628 | 0.561 | 0.4 | 0.427
5 | HCC-366 | 0.306 | 0.23 | 0.0254 | 0.0345 | 0.0398 | 0.976 | 1.04 | 0.094 | 0.0103 | 0.019 | 0.552 | 0.202 | 0.138 | 0.0286 | 0.0335 | 0.169 | 0.131 | 0.0451 | 0.0421 | 0.0514
6 | NCI-H1975 | 0.303 | 0.33 | 0.195 | 0.241 | 0.169 | 1.14 | 1.01 | 0.503 | 0.344 | 0.175 | 0.405 | 0.375 | 0.265 | 0.176 | 0.137 | 0.289 | 0.265 | 0.235 | 0.214 | 0.185
7 | NCI-H1437 | 0.391 | 0.489 | 0.279 | 0.21 | 0.179 | 1.02 | 0.892 | 0.498 | 0.282 | 0.144 | 0.236 | 0.286 | 0.251 | 0.142 | 0.118 | 0.28 | 0.261 | 0.235 | 0.231 | 0.166
8 | NCI-H2009 | 0.272 | 0.28 | 0.287 | 0.136 | 0.138 | 1.08 | 1.11 | 0.349 | 0.302 | 0.105 | 0.486 | 0.462 | 0.312 | 0.228 | 0.203 | 0.959 | 0.987 | 0.724 | 0.475 | 0.168
9 | NCI-H1651 | 0.799 | 0.654 | 0.52 | 0.258 | 0.154 | 1.01 | 0.832 | 0.517 | 0.14 | 0.2 | 0.218 | 0.222 | 0.147 | 0.101 | 0.175 | 0.509 | 0.495 | 0.339 | 0.199 | 0.173
10 | NCI-H1666 | 0.839 | 0.738 | 0.679 | 0.612 | 0.501 | 0.94 | 0.779 | 0.435 | 0.281 | 0.291 | 0.522 | 0.49 | 0.506 | 0.426 | 0.344 | 0.829 | 0.844 | 0.791 | 0.672 | 0.537
11 | NCI-H1734 | 0.678 | 0.73 | 0.381 | 0.238 | 0.163 | 0.851 | 0.782 | 0.366 | 0.164 | 0.0931 | 0.314 | 0.298 | 0.256 | 0.221 | 0.176 | 0.42 | 0.427 | 0.405 | 0.286 | 0.203
12 | EPLC-272H | 0.258 | 0.278 | 0.275 | 0.179 | 0.158 | 1.11 | 0.962 | 0.368 | 0.346 | 0.147 | 0.251 | 0.238 | 0.284 | 0.101 | 0.12 | 0.284 | 0.245 | 0.172 | 0.138 | 0.118
13 | NCI-H2023 | 0.623 | 0.435 | 0.289 | 0.123 | 0.124 | 0.955 | 0.885 | 0.656 | 0.282 | 0.132 | 0.428 | 0.388 | 0.28 | 0.157 | 0.0966 | 0.192 | 0.222 | 0.177 | 0.152 | 0.101
14 | BEN | 1.02 | 0.976 | 0.435 | 0.286 | 0.409 | 0.0634 | 0.063 | 0.0731 | 0.0469 | 0.0558 | 0.283 | 0.299 | 0.233 | 0.207 | 0.184 | 0.629 | 0.784 | 0.335 | 0.358 | 0.342
15 | COR-L 105 | 0.4 | 0.407 | 0.369 | 0.325 | 0.281 | 0.909 | 0.686 | 0.532 | 0.273 | 0.287 | 0.454 | 0.493 | 0.335 | 0.234 | 0.246 | 1.08 | 0.995 | 0.952 | 0.607 | 0.298
16 | HCC-15 | 0.356 | 0.286 | 0.175 | 0.122 | 0.113 | 0.657 | 0.517 | 0.27 | 0.12 | 0.103 | 0.401 | 0.313 | 0.178 | 0.108 | 0.1 | 0.234 | 0.212 | 0.187 | 0.143 | 0.135
